Assay results as given in ChEMBL document CHEMBL4819010, “Design, synthesis, and biological studies of novel 3-benzamidobenzoic acid derivatives as farnesoid X receptor partial agonist” (Eur J Med Chem, 2021).
Values belong to the compound of their own block, whether it stands above or below them. Active and inactive are the calls of the source. No cut-off for these calls is given here.

How the values were obtained:
Bile acid receptor = target: T1, Bile acid receptor (Homo sapiens, UniProt Q96RI1); assay: Agonist activity at FXR-LBD (unknown origin) assessed by ligand binding ability incubated for 3 hrs in absence of light measured by TR-FRET Coactivator assay
T1 sequence (Q96RI1 whole entry): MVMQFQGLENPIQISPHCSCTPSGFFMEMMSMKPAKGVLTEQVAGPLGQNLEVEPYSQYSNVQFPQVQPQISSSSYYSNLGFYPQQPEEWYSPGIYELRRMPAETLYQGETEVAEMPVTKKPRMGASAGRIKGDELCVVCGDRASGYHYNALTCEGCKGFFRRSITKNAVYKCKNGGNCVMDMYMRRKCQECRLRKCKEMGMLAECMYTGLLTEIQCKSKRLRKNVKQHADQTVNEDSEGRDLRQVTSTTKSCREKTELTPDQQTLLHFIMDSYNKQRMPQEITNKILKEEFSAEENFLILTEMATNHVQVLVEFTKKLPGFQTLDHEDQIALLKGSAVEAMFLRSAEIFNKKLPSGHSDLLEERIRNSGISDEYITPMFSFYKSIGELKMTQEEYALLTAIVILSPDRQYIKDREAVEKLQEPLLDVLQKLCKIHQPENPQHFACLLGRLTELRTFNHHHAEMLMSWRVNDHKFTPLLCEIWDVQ

Mus musculus [1] = assay: Hepatoprotective activity in APAP-induced C57BL/6 mouse liver injury model assessed as decrease in hepatic necrosis at 30 mg/kg, bid oral gavage for 5 days measured after 12 hrs of APAP injection; assay type: functional, organism-based; settings: time 5.0 day
Mus musculus [2] = assay: Hepatoprotective activity in APAP-induced C57BL/6 mouse liver injury model assessed as decrease in hepatic degeneration at 30 mg/kg, bid oral gavage for 5 days measured after 12 hrs of APAP injection; assay type: functional, organism-based; settings: time 5.0 day
Mus musculus [3] = assay: Hepatoprotective activity in APAP-induced C57BL/6 mouse liver injury model assessed as decrease in hepatic haemorrhage at 30 mg/kg, bid oral gavage for 5 days measured after 12 hrs of APAP injection; assay type: functional, organism-based; settings: time 5.0 day
Mus musculus [4] = assay: Hepatoprotective activity in APAP-induced C57BL/6 mouse liver injury model assessed as decrease in serum ALT levels at 30 mg/kg, bid oral gavage measured after 5 days; assay type: functional, organism-based; settings: time 5.0 day
Mus musculus [5] = assay: Hepatoprotective activity in APAP-induced C57BL/6 mouse liver injury model assessed as decrease in serum AST levels at 30 mg/kg, bid oral gavage measured after 5 days; assay type: functional, organism-based; settings: time 5.0 day
Mus musculus [6] = assay: Hepatoprotective activity in APAP-induced C57BL/6 mouse liver injury model assessed as decrease in serum LDH levels at 30 mg/kg, bid oral gavage measured after 5 days; assay type: functional, organism-based; settings: time 5.0 day
[7] = Agonist activity at FXR (unknown origin)/human RXR heterodimer expressing in human HepG2 cells co-expressing pCMV gal assessed luciferase activity measured after 24 hrs by cell based luciferase transactivation assay; settings: HepG2, 24 h
HepG2 = assay: Agonist activity at FXR (unknown origin)/human RXR heterodimer expressing in human HepG2 cells co-expressing pCMV gal assessed luciferase activity measured after 24 hrs by cell based luciferase transactivation assay relative to […]; settings: dose 3.0 µM
Mus musculus [8] = assay: Hepatoprotective activity in APAP-induced C57BL/6 mouse liver injury model assessed as decrease in […] at 30 mg/kg, bid oral gavage measured after 5 days; assay type: functional, organism-based; settings: time 5.0 day
[9] = target: T2, Bile acid receptor (Mus musculus) (UniProt Q60641); assay: In vivo agonist activity at FXR in C57BL/6 mouse assessed as inhibition of APAP-induced FXR decline at 30 mg/kg, bid ip measured after 5 days by RT-PCR method; assay type: functional, organism-based; settings: time 5.0 day
T2 sequence (whole entry): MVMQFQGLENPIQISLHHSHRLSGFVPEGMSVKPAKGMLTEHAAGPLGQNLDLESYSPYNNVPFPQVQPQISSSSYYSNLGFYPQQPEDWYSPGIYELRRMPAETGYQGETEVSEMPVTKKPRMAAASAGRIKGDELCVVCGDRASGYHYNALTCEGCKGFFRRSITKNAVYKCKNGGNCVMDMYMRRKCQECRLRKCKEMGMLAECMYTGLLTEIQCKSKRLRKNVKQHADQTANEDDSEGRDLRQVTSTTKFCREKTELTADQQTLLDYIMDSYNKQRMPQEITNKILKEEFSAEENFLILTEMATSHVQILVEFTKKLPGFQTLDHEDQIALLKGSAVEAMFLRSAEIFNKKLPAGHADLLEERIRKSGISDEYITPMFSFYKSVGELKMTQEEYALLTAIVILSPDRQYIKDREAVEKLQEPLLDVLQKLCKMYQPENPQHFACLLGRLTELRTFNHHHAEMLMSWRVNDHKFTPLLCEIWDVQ

[10] = target: T2, Bile acid receptor (Mus musculus); assay: In vivo agonist activity at FXR in C57BL/6 mouse assessed as increase of UGT1A1 mRNA expression at 30 mg/kg, bid ip measured after 5 days by RT-PCR method; assay type: functional, organism-based; settings: time 5.0 day
[11] = target: T2, Bile acid receptor (Mus musculus); assay: In vivo agonist activity at FXR in C57BL/6 mouse assessed as increase of BSEP mRNA expression at 30 mg/kg, bid ip measured after 5 days by RT-PCR method; assay type: functional, organism-based; settings: time 5.0 day
[12] = target: T2, Bile acid receptor (Mus musculus); assay: In vivo agonist activity at FXR in C57BL/6 mouse assessed as upregulation of OST beta mRNA expression at 30 mg/kg, bid ip measured after 5 days by RT-PCR method; assay type: functional, organism-based; settings: time 5.0 day
[13] = target: T2, Bile acid receptor (Mus musculus); assay: In vivo agonist activity at FXR in C57BL/6 mouse assessed as upregulation of SHP mRNA expression at 30 mg/kg, bid ip measured after 5 days by RT-PCR method; assay type: functional, organism-based; settings: time 5.0 day
[14] = target: T2, Bile acid receptor (Mus musculus); assay: In vivo agonist activity at FXR in C57BL/6 mouse assessed as upregulation of IBABP mRNA expression at 30 mg/kg, bid ip measured after 5 days by RT-PCR method; assay type: functional, organism-based; settings: time 5.0 day
[15] = target: T2, Bile acid receptor (Mus musculus); assay: In vivo agonist activity at FXR in C57BL/6 mouse assessed as decrease of CYP7A1 mRNA expression at 30 mg/kg, bid ip measured after 5 days by RT-PCR method; assay type: functional, organism-based; settings: time 5.0 day
Mus musculus [16] = assay: Hepatoprotective activity in APAP-induced C57BL/6 mouse liver injury model assessed as increase in GSH levels at 30 mg/kg, bid oral gavage measured after 5 days; assay type: functional, organism-based; settings: time 5.0 day
Mus musculus [17] = assay: Hepatoprotective activity in APAP-induced C57BL/6 mouse liver injury model assessed as increase in Gclm mRNA expression at 30 mg/kg, bid oral gavage measured after 5 days by qRT-PCR method; assay type: functional, organism-based; settings: time 5.0 day
Mus musculus [18] = assay: Hepatoprotective activity in APAP-induced C57BL/6 mouse liver injury model assessed as increase in catalase mRNA expression at 30 mg/kg, bid oral gavage measured after 5 days by qRT-PCR method; assay type: functional, organism-based; settings: time 5.0 day
Mus musculus [19] = assay: Hepatoprotective activity in APAP-induced C57BL/6 mouse liver injury model assessed as increase in SOD2 mRNA expression at 30 mg/kg, bid oral gavage measured after 5 days by qRT-PCR method; assay type: functional, organism-based; settings: time 5.0 day
Mus musculus [20] = assay: Hepatoprotective activity in APAP-induced C57BL/6 mouse liver injury model assessed as increase in Gpx1 mRNA expression at 30 mg/kg, bid oral gavage measured after 5 days by qRT-PCR method; assay type: functional, organism-based; settings: time 5.0 day
Mus musculus [21] = assay: Hepatoprotective activity in APAP-induced C57BL/6 mouse liver injury model assessed as increase in SOD1 mRNA expression at 30 mg/kg, bid oral gavage measured after 5 days by qRT-PCR method; assay type: functional, organism-based; settings: time 5.0 day

EC50 (Bile acid receptor): > 10000 nM
Structure (SMILES): O=C(Nc1ccccc1C(=O)O)c1ccc(Oc2ccccc2)cc1

EC50 (Bile acid receptor): 127 nM
Structure (SMILES): Cc1ccc(NC(=O)c2ccc(Oc3ccccc3)cc2)cc1C(=O)O

EC50 (Bile acid receptor): 1160 nM
Structure (SMILES): O=C(O)c1cccc(NC(=O)c2cccc(OCc3ccccc3)c2)c1

EC50 (Bile acid receptor): > 10000 nM
Structure (SMILES): O=C(O)c1ccc(NC(=O)c2ccc(Oc3ccccc3)cc2)cc1

EC50 (Bile acid receptor): > 10000 nM
Structure (SMILES): CC(Oc1cccc(NC(=O)c2ccc(Oc3ccccc3)cc2)c1)C(=O)O (configuration not stated)

EC50 (Bile acid receptor): > 10000 nM
Structure (SMILES): O=C(O)COc1cccc(NC(=O)c2ccc(Oc3ccccc3)cc2)c1

Continued, compound first:

Structure (SMILES): Cc1cccc(COc2ccc(C(=O)Nc3cccc(C(=O)O)c3)cc2)c1
EC50 (Bile acid receptor): 259 nM

Structure (SMILES): O=C(O)c1cccc(NC(=O)c2cccc(OCC3CC3)c2)c1
EC50 (Bile acid receptor): 1260 nM

Structure (SMILES): Cc1ccc(COc2cccc(C(=O)Nc3cccc(C(=O)O)c3)c2)cc1
EC50 (Bile acid receptor): 1420 nM

Structure (SMILES): CCCCOc1ccc(C(=O)Nc2cccc(C(=O)O)c2)cc1
EC50 (Bile acid receptor): 105 nM

Structure (SMILES): O=C(O)c1ccc(OCc2ccc(OCc3c(-c4c(Cl)cccc4Cl)noc3C3CC3)cc2)cc1
EC50 (Bile acid receptor): 265 nM
Activity (Mus musculus [1]): Active
Activity (Mus musculus [2]): Active
Activity (Mus musculus [3]): Active
Activity (Mus musculus [4]): Active
Activity (Mus musculus [5]): Active
Activity (Mus musculus [6]): Active

Structure (SMILES): CCOc1cccc(C(=O)Nc2cccc(C(=O)O)c2)c1
EC50 (Bile acid receptor): 2350 nM

Structure (SMILES): Cc1cc(C(=O)Nc2cccc(C(=O)O)c2)nn1-c1ccccc1
EC50 (Bile acid receptor): > 10000 nM

Structure (SMILES): CCCCCOc1cccc(C(=O)Nc2cccc(C(=O)O)c2)c1
EC50 (Bile acid receptor): 2540 nM

Structure (SMILES): CCCOc1cccc(C(=O)Nc2cccc(C(=O)O)c2)c1
EC50 (Bile acid receptor): 2150 nM

Structure (SMILES): O=C(O)c1cccc(NC(=O)c2nc(-c3ccccc3)cs2)c1
EC50 (Bile acid receptor): 2880 nM

Structure (SMILES): O=C(O)c1cccc(NC(=O)c2cccc(-c3ccccc3)c2)c1
EC50 (Bile acid receptor): 25 nM
EC50 [7]: 196 nM
Activity (HepG2): 28.6%
Activity (Mus musculus [1]): Active
Activity (Mus musculus [2]): Active
Activity (Mus musculus [3]): Active
Activity (Mus musculus [8]): Active
Activity (Mus musculus [4]): Active
Activity (Mus musculus [5]): Active
Activity (Mus musculus [6]): Active
Activity [9]: Active
Activity [10]: Active
Activity [11]: Active
Activity [12]: Active
Activity [13]: Active
Activity [14]: Active
Activity [15]: Active
Activity (Mus musculus [16]): Active
Activity (Mus musculus [17]): Active
Activity (Mus musculus [18]): Active
Activity (Mus musculus [19]): Active
Activity (Mus musculus [20]): Active
Activity (Mus musculus [21]): Active

Structure (SMILES): O=C(O)c1cccc(NC(=O)c2csc(-c3ccc(C(F)(F)F)cc3)n2)c1
EC50 (Bile acid receptor): 1690 nM

Structure (SMILES): COc1ccccc1C(=O)Nc1ccc(C)c(C(=O)O)c1
EC50 (Bile acid receptor): > 10000 nM
